In US20170037028A1 (BAYER PHARMA AKTIENGESELLSCHAFT, priority 2013, published 2017) one finds IC50 data, which are given here for 29 compounds.

Each structure is given as a SMILES string.

What is called IC50 is the concentration that inhibits the measured activity by half.

In this assay the target is T1, GLUT1 (Homo sapiens, UniProt P11166).
T1 sequence (P11166 1-492): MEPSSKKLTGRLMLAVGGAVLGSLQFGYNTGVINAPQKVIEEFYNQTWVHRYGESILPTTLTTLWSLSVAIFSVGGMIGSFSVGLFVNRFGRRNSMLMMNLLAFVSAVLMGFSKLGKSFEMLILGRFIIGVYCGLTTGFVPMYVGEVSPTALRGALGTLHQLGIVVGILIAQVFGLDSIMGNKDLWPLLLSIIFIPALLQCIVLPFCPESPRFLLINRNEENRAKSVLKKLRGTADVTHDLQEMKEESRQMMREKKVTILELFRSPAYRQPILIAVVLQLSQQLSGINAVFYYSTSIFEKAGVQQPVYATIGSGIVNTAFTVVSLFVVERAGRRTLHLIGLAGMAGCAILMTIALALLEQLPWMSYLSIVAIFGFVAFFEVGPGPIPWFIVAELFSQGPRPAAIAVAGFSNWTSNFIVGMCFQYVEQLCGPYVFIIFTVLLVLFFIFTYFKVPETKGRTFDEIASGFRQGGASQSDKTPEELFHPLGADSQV
Nature of the assay: Indirect measurement of GLUT1 activity by quantification of intracellular ATP levels (glucose induced ATP increase). Also on record: endogenous in cells; host or cells: DLD1 or CHO-K1. The format is cell-based. To be noted: read-out: IC50 regarding glucose induced ATP increase (GLUT1 inhibition). From the text: Indirect Measurement of GLUT1 and GLUT2 Activity by Quantification of Intracellular ATP Levels
It is well known that a combination of small-molecule inhibitors of mitochondrial electron transport chain and glucose catabolism synergistically suppress ATP production and impair cellular viability (Ulanovskaya et al., 2008, 2011; Liu, et al. 2001). We therefore used DLD1 or CHO-K1 cells in combination with an oxidative phosphorylation inhibitor to identify GLUT1 and GLUT2 inhibitors. Cell lines were maintained in DMEM medium supplemented with 10% FCS and 1% Penicillin-Streptomycin solution and 2% Glutamax. The cells were treated with trypsin and seeded into 384 plates at a density of 4000 cells/well. The cells were then cultured overnight in glucose free media containing 1% FCS to reduce intracellular ATP levels. […] The CellTiter-Glo® Luminescent Cell Viability Assay from Promega was then used to measure ATP Levels.
With `Cc1ccc(Cn2nc(C)c(NC(=O)c3cc(C(F)(F)F)nc4c(Cl)cc(Cl)cc34)c2C)cc1` [Example 31, 6,8-dichloro-N-[3,5-dimethyl-1-(4-methylbenzyl)-1H-pyrazol-4-yl]-2-(trifluoromethyl)quinoline-4-carboxamide], the IC50 worked out at 20 nM.

Regarding `Cc1c(NC(=O)c2cc(C(F)(F)F)nc3ccc(Br)cc23)c(C(F)(F)F)nn1Cc1ccc(F)cc1` [Example 32, 6-bromo-N-[1-(4-fluorobenzyl)-5-methyl-3-(trifluoromethyl)-1H-pyrazol-4-yl]-2-(trifluoromethyl)quinoline-4-carboxamide], the IC50 turned out to be 20.5 nM. In the case of `Cc1nn(Cc2ccccc2)c(C)c1NC(=O)c1cc(C(F)(F)F)nc2ccc(Br)cc12` [Example 33, N-(1-benzyl-3,5-dimethyl-1H-pyrazol-4-yl)-6-bromo-2-(trifluoromethyl)quinoline-4-carboxamide] it was 25 nM; in that of `Cc1nn(Cc2ccc(F)cc2)c(C)c1NC(=O)c1cc(C(F)(F)F)nc2cccc(Br)c12` [Example 34, 5-bromo-N-[1-(4-fluorobenzyl)-3,5-dimethyl-1H-pyrazol-4-yl]-2-(trifluoromethyl)quinoline-4-carboxamide], 25.2 nM; in that of `Cc1nn(Cc2ccc(F)c(F)c2)c(C)c1NC(=O)c1cc(C(F)(F)F)nc2c(Cl)cc(Cl)cc12` [Example 35, 6,8-dichloro-N-[1-(3,4-difluorobenzyl)-3,5-dimethyl-1H-pyrazol-4-yl]-2-(trifluoromethyl)quinoline-4-carboxamide], 25.6 nM. The result for `Cc1nn(Cc2ccc(F)cc2)c(C)c1NC(=O)c1cc(Br)nc2ccccc12` [Example 36, 2-bromo-N-[1-(4-fluorobenzyl)-3,5-dimethyl-1H-pyrazol-4-yl]quinoline-4-carboxamide] reads 88.9 nM; that for `Cc1nn(Cc2ccc(F)cc2)c(C)c1NC(=O)c1c2c(nc3ccc(Br)cc13)CCCC2` [Example 37, 7-bromo-N-[1-(4-fluorobenzyl)-3,5-dimethyl-1H-pyrazol-4-yl]-1,2,3,4-tetrahydroacridine-9-carboxamide], 26.7 nM. For `Cc1c(NC(=O)c2cc(C(F)(F)F)nc3c(Cl)cc(Cl)cc23)c(C(F)(F)F)nn1Cc1ccc(F)cc1` [Example 38, 6,8-dichloro-N-[1-(4-fluorobenzyl)-5-methyl-3-(trifluoromethyl)-1H-pyrazol-4-yl]-2-(trifluoromethyl)quinoline-4-carboxamide], the IC50 stood at 29.5 nM. The result for `Cc1nn(Cc2ccc(F)cc2)c(C)c1NC(=O)c1cc(C(F)(F)F)nc2cc(F)c(F)cc12` [Example 39, 6,7-difluoro-N-[1-(4-fluorobenzyl)-3,5-dimethyl-1H-pyrazol-4-yl]-2-(trifluoromethyl)quinoline-4-carboxamide] reads 30 nM. In the case of `Cc1nn(Cc2ccc(F)cc2)c(C)c1NC(=O)c1cc(C2CC2)nc2c(F)cccc12` [Example 40, 2-cyclopropyl-8-fluoro-N-[1-(4-fluorobenzyl)-3,5-dimethyl-1H-pyrazol-4-yl]quinoline-4-carboxamide] it was 30 nM; in that of `Cc1nn(Cc2ccc(F)cc2F)c(C)c1NC(=O)c1cc(C(F)(F)F)nc2ccc(Br)cc12` [Example 41, 6-bromo-N-[1-(2,4-difluorobenzyl)-3,5-dimethyl-1H-pyrazol-4-yl]-2-(trifluoromethyl)quinoline-4-carboxamide], 30 nM; in that of `COc1cc(C(=O)Nc2c(C)nn(Cc3c(F)cccc3F)c2C)c2ccccc2n1` [Example 42, N-[1-(2,6-difluorobenzyl)-3,5-dimethyl-1H-pyrazol-4-yl]-2-methoxyquinoline-4-carboxamide], 30.9 nM.

On to `Cc1cc(C(=O)Nc2c(C)nn(Cc3ccc(F)cc3)c2C)c2cc(Br)ccc2n1` [Example 43, 6-bromo-N-[1-(4-fluorobenzyl)-3,5-dimethyl-1H-pyrazol-4-yl]-2-methylquinoline-4-carboxamide], for which the half-inhibitory concentration (IC50) is 31.7 nM. On to `Cc1ccc2nc(C)cc(C(=O)Nc3c(C)nn(Cc4ccc(C#N)cc4)c3C)c2c1` [Example 44, N-[1-(4-cyanobenzyl)-3,5-dimethyl-1H-pyrazol-4-yl]-2,6-dimethylquinoline-4-carboxamide], for which the 50% inhibitory concentration (IC50) was found to be 32.1 nM. With `Cc1ccc(Cn2nc(C)c(NC(=O)c3cc(C)nc4ccc(C)cc34)c2C)cc1` [Example 45, N-[3,5-dimethyl-1-(4-methylbenzyl)-1H-pyrazol-4-yl]-2,6-dimethylquinoline-4-carboxamide], the IC50 stood at 35.4 nM. In the case of `Cc1nn(Cc2ccc(F)cc2)c(C)c1NC(=O)c1cc(C2CC2)nc2cccc(F)c12` [Example 46, 2-cyclopropyl-5-fluoro-N-[1-(4-fluorobenzyl)-3,5-dimethyl-1H-pyrazol-4-yl]quinoline-4-carboxamide] it was 40 nM; in that of `Cc1nn(Cc2ccc(F)c(F)c2)c(C)c1NC(=O)c1cc(C(F)(F)F)nc2ccc(Br)cc12` [Example 47, 6-bromo-N-[1-(3,4-difluorobenzyl)-3,5-dimethyl-1H-pyrazol-4-yl]-2-(trifluoromethyl)quinoline-4-carboxamide], 44.4 nM. The result for `Cc1nn(Cc2ccc(F)cc2F)c(C)c1NC(=O)c1cc(C(F)(F)F)nc2c(Cl)cc(Cl)cc12` [Example 48, 6,8-dichloro-N-[1-(2,4-difluorobenzyl)-3,5-dimethyl-1H-pyrazol-4-yl]-2-(trifluoromethyl)quinoline-4-carboxamide] reads 44.4 nM. For the compound `Cc1nn(Cc2c(F)cc(F)cc2F)c(C)c1NC(=O)c1cc(C(F)(F)F)nc2ccc(Br)cc12` [Example 49, 6-bromo-N-[3,5-dimethyl-1-(2,4,6-trifluorobenzyl)-1H-pyrazol-4-yl]-2-(trifluoromethyl)quinoline-4-carboxamide], the 50% inhibitory concentration (IC50) was found to be 50 nM. In the case of `COc1cc(C(=O)Nc2c(C)nn(Cc3c(F)cc(F)cc3F)c2C)c2ccccc2n1` [Example 50, N-[3,5-dimethyl-1-(2,4,6-trifluorobenzyl)-1H-pyrazol-4-yl]-2-methoxyquinoline-4-carboxamide] it was 50 nM; in that of `COc1cc(C(=O)Nc2c(C)nn(Cc3ccccc3C)c2C)c2ccccc2n1` [Example 51, N-[3,5-dimethyl-1-(2-methylbenzyl)-1H-pyrazol-4-yl]-2-methoxyquinoline-4-carboxamide], 50 nM. The result for `Cc1cccc(Cn2nc(C)c(NC(=O)c3cc(C(F)(F)F)nc4ccc(Br)cc34)c2C)c1` [Example 52, 6-bromo-N-[3,5-dimethyl-1-(3-methylbenzyl)-1H-pyrazol-4-yl]-2-(trifluoromethyl)quinoline-4-carboxamide] reads 52.1 nM.

For the compound `Cc1cc(C(=O)Nc2c(C)nn(Cc3ccc(F)cc3)c2C)c2cccc(Br)c2n1` [Example 53, 8-bromo-N-[1-(4-fluorobenzyl)-3,5-dimethyl-1H-pyrazol-4-yl]-2-methylquinoline-4-carboxamide], the IC50 was found to be 52.4 nM. The result for `Cc1ccc(Cn2nc(C)c(NC(=O)c3cc(C(F)(F)F)nc4ccc(Br)cc34)c2C)cc1` [Example 54, 6-bromo-N-[3,5-dimethyl-1-(4-methylbenzyl)-1H-pyrazol-4-yl]-2-(trifluoromethyl)quinoline-4-carboxamide] reads 58.3 nM; that for `COc1cc(C(=O)Nc2c(C)nn(Cc3ccc(F)c(F)c3)c2C)c2ccccc2n1` [Example 55, N-[1-(3,4-difluorobenzyl)-3,5-dimethyl-1H-pyrazol-4-yl]-2-methoxyquinoline-4-carboxamide], 59.3 nM; that for `Cc1nn(Cc2ccc(OC(F)(F)F)cc2)c(C)c1NC(=O)c1cc(C(F)(F)F)nc2ccc(Br)cc12` [Example 56, 6-bromo-N-{3,5-dimethyl-1-[4-(trifluoromethoxy)benzyl]-1H-pyrazol-4-yl}-2-(trifluoromethyl)quinoline-4-carboxamide], 60.4 nM. The result for `Cc1nn(Cc2c(F)cc(F)cc2F)c(C)c1NC(=O)c1cc(C(F)(F)F)nc2c(Cl)cc(Cl)cc12` [Example 57, 6,8-dichloro-N-[3,5-dimethyl-1-(2,4,6-trifluorobenzyl)-1H-pyrazol-4-yl]-2-(trifluoromethyl)quinoline-4-carboxamide] reads 66.7 nM; that for `Cc1ccc2nc(C)cc(C(=O)Nc3c(C)nn(Cc4ccc(OC(F)(F)F)cc4)c3C)c2c1` [Example 58, N-{3,5-dimethyl-1-[4-(trifluoromethoxy)benzyl]-1H-pyrazol-4-yl}-2,6-dimethylquinoline-4-carboxamide], 77.1 nM; that for `Cc1nn(Cc2ccccc2)c(C)c1NC(=O)c1cc(C(F)(F)F)nc2c(Cl)cc(Cl)cc12` [Example 59, N-(1-benzyl-3,5-dimethyl-1H-pyrazol-4-yl)-6,8-dichloro-2-(trifluoromethyl)quinoline-4-carboxamide], 92.6 nM.
